System: adipose cells of rats
Experiment: Evaluation of the sugar transporting capacity (2-[14C(U)]-deoxy-D-glucose incorporation)
Format: cell-based
Conditions: insulin 100 nM; rat adipose cells; 2-deoxy-D-glucose incorporation
Protocol: Preparation of Adipose Cells of Rats:
After the decapitation and venesection of 6 male Wistar rats (body weight: 150 to 200 g), an incision was made in the abdomen of each rat to extract 6 g in total of epididymal adipose tissues. The tissues were finely cut into 2 mm×2 mm pieces in 6 ml of KRH (Krebs-Ringer Hepes, composition: 130 mM of sodium chloride, 4.7 mM of potassium chloride, 1.2 mM of potassium dihydrogenphosphate, 1.2 mM of magnesium sulfate, 1 mM of calcium chloride and 25 mM of Hepes, pH=7.6) containing 5% of BSA (bovine serum albumin). 24 mg of collagenase (type I) was added thereto and the digestion treatment was conducted for about 40 minutes to obtain about 6 ml of isolated adipose cells. The collagenase was removed by the buffer exchange. 2% BSA/KRH solution was added to the residue for the re-suspension to obtain 45 ml of an adipose cell suspension.
Evaluation of the Sugar Transporting Capacity: […]
The sugar transporting capacity was evaluated by measuring the quantity of 2-[^14C(U)]-deoxy-D-glucose incorporated per a unit time. […] The quantity of 2-[^14C(U)]-deoxy-D-glucose contained in the adipose cell layer was determined with a liquid scintillation counter to determine the quantity of the incorporated sugar.

## insulin
  effect of increasing the sugar-transporting capacity versus insulin-free control group: about 7 times

From patent US7834006B2, “Fused polycyclic compounds” (Ajinomoto Co., Inc., priority 2004, dated 2010)
